Data set [1] has as its target T1, ZCCHC4_24-464 (Homo sapiens, UniProt Q9H5U6, K55A/E56A/E57A/K167A/K168A).
T1 construct: gene ZCCHC4; core fragment, residues 24-464, five surface mutations for crystallization; His6-SUMO tag cleaved by ULP1; E. coli BL21(DE3) RIL
T1 sequence (Q9H5U6 24-464 K55A/E56A/E57A/K167A/K168A): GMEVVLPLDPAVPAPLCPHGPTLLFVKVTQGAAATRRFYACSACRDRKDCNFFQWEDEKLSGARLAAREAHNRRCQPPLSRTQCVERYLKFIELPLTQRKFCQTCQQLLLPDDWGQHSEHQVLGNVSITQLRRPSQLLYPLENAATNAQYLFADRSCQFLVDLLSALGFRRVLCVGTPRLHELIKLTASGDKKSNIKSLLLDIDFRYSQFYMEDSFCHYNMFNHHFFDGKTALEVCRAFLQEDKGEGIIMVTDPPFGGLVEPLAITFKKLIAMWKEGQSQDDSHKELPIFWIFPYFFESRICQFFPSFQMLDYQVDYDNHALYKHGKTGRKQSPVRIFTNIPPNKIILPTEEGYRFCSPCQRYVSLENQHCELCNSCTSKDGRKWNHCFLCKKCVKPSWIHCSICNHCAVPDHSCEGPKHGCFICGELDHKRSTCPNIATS
Put plainly: X-ray crystal structure, […] Å. It counts as binding. Particulars: cofactor pocket of the MTase domain; no RNA.

Data set [2] deals with T2, ZCCHC4_24-513 (Homo sapiens, UniProt Q9H5U6).
T2 construct: gene ZCCHC4; residues 24-513; His6-SUMO tag cleaved by ULP1; E. coli BL21(DE3) RIL; monomer in solution
T2 sequence (Q9H5U6 24-513): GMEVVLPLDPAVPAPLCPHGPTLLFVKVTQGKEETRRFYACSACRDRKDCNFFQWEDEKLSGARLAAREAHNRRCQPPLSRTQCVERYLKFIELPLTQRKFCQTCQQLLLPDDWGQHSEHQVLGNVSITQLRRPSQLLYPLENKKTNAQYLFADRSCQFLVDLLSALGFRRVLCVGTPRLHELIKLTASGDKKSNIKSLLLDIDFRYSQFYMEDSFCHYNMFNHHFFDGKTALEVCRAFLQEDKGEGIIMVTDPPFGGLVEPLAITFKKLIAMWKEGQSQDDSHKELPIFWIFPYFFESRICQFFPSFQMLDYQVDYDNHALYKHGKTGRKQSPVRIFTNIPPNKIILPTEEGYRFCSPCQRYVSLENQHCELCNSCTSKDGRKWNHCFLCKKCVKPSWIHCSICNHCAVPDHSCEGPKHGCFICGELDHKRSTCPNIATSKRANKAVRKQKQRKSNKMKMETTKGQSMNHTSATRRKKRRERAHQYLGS
In words: isothermal titration calorimetry. Type of data set: binding.

Data set [3] deals with T3, ZCCHC4_24-513 (Homo sapiens, UniProt Q9H5U6, H343A).
T3 construct: gene ZCCHC4; residues 24-513; His6-SUMO tag cleaved by ULP1; E. coli BL21(DE3) RIL; monomer in solution
T3 sequence (Q9H5U6 24-513 H343A): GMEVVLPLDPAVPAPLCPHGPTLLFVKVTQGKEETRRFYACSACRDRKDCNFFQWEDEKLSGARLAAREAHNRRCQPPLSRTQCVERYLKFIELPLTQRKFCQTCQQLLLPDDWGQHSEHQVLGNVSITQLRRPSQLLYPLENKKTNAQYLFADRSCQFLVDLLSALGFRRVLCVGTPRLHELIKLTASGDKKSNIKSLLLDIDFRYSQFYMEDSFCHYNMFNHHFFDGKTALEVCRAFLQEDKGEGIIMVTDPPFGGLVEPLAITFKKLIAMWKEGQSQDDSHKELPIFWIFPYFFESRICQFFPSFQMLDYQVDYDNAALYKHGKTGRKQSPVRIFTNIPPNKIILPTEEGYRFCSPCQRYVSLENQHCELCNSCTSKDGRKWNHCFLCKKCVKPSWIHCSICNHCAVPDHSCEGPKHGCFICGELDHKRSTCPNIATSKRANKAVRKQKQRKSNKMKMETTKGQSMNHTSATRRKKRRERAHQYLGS
In words: isothermal titration calorimetry. Type of data set: binding.

In data set [4] the target is T4, ZCCHC4 24-464 WT (core) (human, UniProt Q9H5U6 24-464).
T4 sequence: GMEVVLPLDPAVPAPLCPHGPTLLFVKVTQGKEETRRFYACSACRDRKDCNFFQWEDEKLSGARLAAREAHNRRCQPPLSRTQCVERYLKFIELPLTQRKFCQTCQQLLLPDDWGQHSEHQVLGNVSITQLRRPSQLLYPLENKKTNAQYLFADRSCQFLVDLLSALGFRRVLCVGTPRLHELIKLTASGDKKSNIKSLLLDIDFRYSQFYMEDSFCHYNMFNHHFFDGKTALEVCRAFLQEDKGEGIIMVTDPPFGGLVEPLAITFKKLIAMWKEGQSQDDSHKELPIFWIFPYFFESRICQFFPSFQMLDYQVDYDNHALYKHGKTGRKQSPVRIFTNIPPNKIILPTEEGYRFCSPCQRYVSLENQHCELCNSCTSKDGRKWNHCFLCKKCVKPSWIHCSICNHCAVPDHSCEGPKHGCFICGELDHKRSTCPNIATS
Put plainly: EMSA; EMSA: 20 mM Tris-HCl pH 7.5, 100 mM NaCl, 5% glycerol, 1 mM DTT, 4 C, 1 h; 0.3 uM RNA with 0-1.2 uM protein unless noted; 6% TBE native gel. The following applies: protein: recombinant; tags: His6-SUMO removed by ULP1; label: none (SYBR Gold stain); stem-loop with tail.

In the case of `Nc1ncnc2c1ncn2[C@@H]1O[C@H](CSCC[C@H](N)C(=O)O)[C@@H](O)[C@H]1O` [SAH], the “X-ray crystal structure, 3.1 Å” value in data set [1] is listed as “in complex with S-adenosyl-L-homocysteine (SAH)”.
Take `C[S+](CC[C@H](N)C(=O)O)C[C@H]1O[C@@H](n2cnc3c(N)ncnc32)[C@H](O)[C@@H]1O` (stereo partly shown) [SAM]: the Kd is 6.7 µM in data set [2] and 1.6 µM in data set [3].
For the molecule CGGUACACCUGUCAAACGGUAACGCAGGUG (structured_RNA) [30-mer 28S rRNA], in data set [4], the binding result is “binds”.

The values are drawn from article PMC6834594, “Structure and regulation of ZCCHC4 in m^6A-methylation of 28S rRNA” (Nature Communications, 2019).
